Source: ChEMBL document CHEMBL1201862, “PubChem BioAssay data set” (2004)
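Exposure lasted 48 hours, with cells grown in 96-well plates and compounds tested at five concentrations. Abbreviation: GI50, concentration required for 50% inhibition of growth.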 Activity calls are given as the source filed them. Cut-off read from the data, not from the text of the source: active = GI50 up to about 1.1 µM and inactive = higher.

Tests used:
Test in all cases: inhibition of tumour cell growth, NCI panel, 48 h
HCT-116 = test system: HCT-116
T47D = test system: T47D
SK-MEL-5 = test system: SK-MEL-5
Malme-3M = test system: Malme-3M
MCF7 = test system: MCF7
SK-OV-3 = test system: SK-OV-3
SNB-19 = test system: SNB-19
NCI-H226 = test system: NCI-H226
SN12C = test system: SN12C
ACHN = test system: ACHN
SW-620 = test system: SW-620
HOP-92 = test system: HOP-92
DU-145 = test system: DU-145
OVCAR-4 = test system: OVCAR-4
NCI-H23 = test system: NCI-H23
UO-31 = test system: UO-31
SK-MEL-28 = test system: SK-MEL-28
RXF 393 = test system: RXF 393
OVCAR-3 = test system: OVCAR-3
HCC 2998 = test system: HCC 2998

| Compound | GI50 (HCT-116) | GI50 (T47D) | GI50 (SK-MEL-5) | GI50 (Malme-3M) | GI50 (MCF7) | GI50 (SK-OV-3) | GI50 (SNB-19) | GI50 (NCI-H226) | GI50 (SN12C) | GI50 (ACHN) | GI50 (SW-620) | GI50 (HOP-92) | GI50 (DU-145) | GI50 (OVCAR-4) | GI50 (NCI-H23) | GI50 (UO-31) | GI50 (SK-MEL-28) | GI50 (RXF 393) | GI50 (OVCAR-3) | GI50 (HCC 2998) |
| --- | --- | --- | --- | --- | --- | --- | --- | --- | --- | --- | --- | --- | --- | --- | --- | --- | --- | --- | --- | --- |
| CC(C)(C)c1cc(Br)c(O)c(CN(Cc2cc(C(C)(C)C)cc(Br)c2O)C2CCCCC2)c1 | 12.5 µM (inactive) | 9.68 µM (inactive) | 10.9 µM (inactive) | 11.8 µM (inactive) | 13.9 µM (inactive) | 15.8 µM (inactive) | 14.1 µM (inactive) | 15.6 µM (inactive) | 14.8 µM (inactive) | 14.9 µM (inactive) | 13.1 µM (inactive) | 15.5 µM (inactive) | 13.9 µM (inactive) | 10.5 µM (inactive) | 13.5 µM (inactive) | 14.4 µM (inactive) | 15.5 µM (inactive) | 10.7 µM (inactive) | 11.9 µM (inactive) |  |
| CCOC(=O)C(C)c1nc2cc3cccnc3c(Cl)c2[nH]c1=O (stereo not given) | > 100 µM (inactive) | 23.4 µM (inactive) | > 100 µM (inactive) |  | > 100 µM (inactive) | > 100 µM (inactive) | > 100 µM (inactive) | > 100 µM (inactive) |  | 94.6 µM (inactive) | > 100 µM (inactive) | > 100 µM (inactive) | 20 µM (inactive) | > 100 µM (inactive) | > 100 µM (inactive) | > 100 µM (inactive) | > 100 µM (inactive) | > 100 µM (inactive) |  | 85.3 µM (inactive) |
| CCCC(=O)OC1CC(n2cc(F)c(=O)[nH]c2=O)OC1COP(=O)(OCC(Cl)(Cl)Cl)OCC(Cl)(Cl)Cl (stereo not given) | 3.18 µM (inactive) | 20.7 µM (inactive) | 2.44 µM (inactive) | 5.41 µM (inactive) | 0.0697 µM (active) | 12.4 µM (inactive) | 3.15 µM (inactive) | 65.2 µM (inactive) | 22 µM (inactive) | 0.147 µM (active) | 19.9 µM (inactive) | 4.99 µM (inactive) | 0.938 µM (active) | 16.9 µM (inactive) | 11 µM (inactive) | 0.49 µM (active) | 12.3 µM (inactive) |  | 4.24 µM (inactive) | < 0.01 µM (active) |
| O=C1c2ccccc2CC12CCC1(CC2)OCCO1 | > 100 µM (inactive) | > 100 µM (inactive) | > 10 µM (inactive) | 97.9 µM (inactive) | > 100 µM (inactive) | > 100 µM (inactive) | > 100 µM (inactive) | > 100 µM (inactive) | > 100 µM (inactive) | > 100 µM (inactive) | > 100 µM (inactive) |  | > 100 µM (inactive) | > 100 µM (inactive) | > 100 µM (inactive) | > 100 µM (inactive) | > 100 µM (inactive) | > 100 µM (inactive) |  | > 100 µM (inactive) |
| Clc1nc(Cl)c(-c2ccccc2)c(Cl)n1 | 1.84 µM (inactive) | 2.59 µM (inactive) | 3.18 µM (inactive) | 2.02 µM (inactive) | 3.04 µM (inactive) | 11.2 µM (inactive) | 14.5 µM (inactive) | 2.3 µM (inactive) | 3.14 µM (inactive) | 0.29 µM (active) | 2.26 µM (inactive) | 5.45 µM (inactive) | 13.5 µM (inactive) | 2.51 µM (inactive) | 4.51 µM (inactive) | 4.61 µM (inactive) | 5.96 µM (inactive) | 2.18 µM (inactive) | 3.57 µM (inactive) |  |
| O=[N+]([O-])c1nccn1CCCNCCCn1ccnc1[N+](=O)[O-] | > 100 µM (inactive) | > 100 µM (inactive) | > 100 µM (inactive) | 36.6 µM (inactive) | > 100 µM (inactive) | > 100 µM (inactive) |  | > 100 µM (inactive) | > 100 µM (inactive) | > 100 µM (inactive) | > 100 µM (inactive) | > 100 µM (inactive) | > 100 µM (inactive) | > 100 µM (inactive) | > 100 µM (inactive) | > 100 µM (inactive) | > 100 µM (inactive) | > 100 µM (inactive) | > 100 µM (inactive) |  |
| Cc1ccc(S(=NS(=O)(=O)c2ccc(C)cc2)c2ccc(C)cc2)cc1 | 56.9 µM (inactive) | 56 µM (inactive) |  | > 100 µM (inactive) | 68.2 µM (inactive) |  | > 100 µM (inactive) | > 100 µM (inactive) | > 100 µM (inactive) | > 100 µM (inactive) | > 100 µM (inactive) | > 100 µM (inactive) | > 100 µM (inactive) |  | 51.6 µM (inactive) | 63.7 µM (inactive) | > 100 µM (inactive) | 81.8 µM (inactive) | 76 µM (inactive) |  |
| S=c1[nH]n2c(CCCCCCCCc3nnc4sc(=S)[nH]n34)nnc2s1 | > 100 µM (inactive) | > 100 µM (inactive) |  | > 100 µM (inactive) | > 100 µM (inactive) | > 100 µM (inactive) | > 100 µM (inactive) | > 100 µM (inactive) | > 100 µM (inactive) | > 100 µM (inactive) | > 100 µM (inactive) | > 100 µM (inactive) | > 100 µM (inactive) | > 100 µM (inactive) | > 100 µM (inactive) | > 100 µM (inactive) | > 100 µM (inactive) |  | > 100 µM (inactive) | > 100 µM (inactive) |
| COC(=O)C1=C(CCCCO[Si](C)(C)C(C)(C)C)NC(=O)N2[C@@H](CCOCc3ccccc3)CC[C@H]12 | 10.9 µM (inactive) | 15.8 µM (inactive) | 10.3 µM (inactive) | 19.4 µM (inactive) | 27 µM (inactive) | 45.3 µM (inactive) | 23.6 µM (inactive) |  | 16.7 µM (inactive) | 29.1 µM (inactive) |  | 15.5 µM (inactive) | 12.8 µM (inactive) | 27.5 µM (inactive) | 7.98 µM (inactive) | 19.5 µM (inactive) | 30.5 µM (inactive) |  | 13.4 µM (inactive) | 24.4 µM (inactive) |
| Cc1c(C)c(S(=O)(=O)N(CCCN)OCCCN)c(C)c2c1OC(C)(C)C2 | 35.3 µM (inactive) | 32.6 µM (inactive) | 30.8 µM (inactive) | 18.5 µM (inactive) | 20.5 µM (inactive) | 39.4 µM (inactive) | 15.4 µM (inactive) | 72.1 µM (inactive) | 61.1 µM (inactive) | 29.6 µM (inactive) | 27.5 µM (inactive) |  | 30.6 µM (inactive) | 30.7 µM (inactive) | 29.8 µM (inactive) | 33.4 µM (inactive) | 83.6 µM (inactive) | 15.2 µM (inactive) | 21.4 µM (inactive) | 19.5 µM (inactive) |
| C=CCN(c1cc(OC)c(NC(C)=O)cc1[N+](=O)[O-])S(C)(=O)=O | > 100 µM (inactive) | > 100 µM (inactive) | > 100 µM (inactive) | 10.1 µM (inactive) | > 100 µM (inactive) | > 100 µM (inactive) | > 100 µM (inactive) | > 100 µM (inactive) | > 100 µM (inactive) | > 100 µM (inactive) | > 100 µM (inactive) |  | > 100 µM (inactive) | > 100 µM (inactive) | > 100 µM (inactive) | > 100 µM (inactive) | > 100 µM (inactive) | > 100 µM (inactive) | > 100 µM (inactive) | > 100 µM (inactive) |
| Cc1ccc(Cc2n[nH]c(=O)n2-c2ccccc2)cc1 | > 100 µM (inactive) | 0.652 µM (active) | > 100 µM (inactive) | > 100 µM (inactive) | > 100 µM (inactive) |  | > 100 µM (inactive) | > 100 µM (inactive) | > 100 µM (inactive) | > 100 µM (inactive) | > 100 µM (inactive) |  | > 100 µM (inactive) |  | > 100 µM (inactive) | 86.7 µM (inactive) | > 100 µM (inactive) | 20.2 µM (inactive) |  | > 100 µM (inactive) |
| N#CCC1(c2ccc(Cl)cc2)NC(=O)c2ccccc21 (stereo not given) | > 100 µM (inactive) | > 100 µM (inactive) | > 100 µM (inactive) | > 100 µM (inactive) | > 100 µM (inactive) | > 100 µM (inactive) | > 100 µM (inactive) | > 100 µM (inactive) | > 100 µM (inactive) | > 100 µM (inactive) | > 100 µM (inactive) | > 100 µM (inactive) | > 100 µM (inactive) | > 100 µM (inactive) | > 100 µM (inactive) | > 100 µM (inactive) | > 100 µM (inactive) | > 100 µM (inactive) | > 100 µM (inactive) |  |
| CN(C)c1ncc(-c2c[nH]c3ccccc23)nc1-c1c[nH]c2ccccc12 | 3.13 µM (inactive) | 3.23 µM (inactive) | 3.72 µM (inactive) |  | 2.3 µM (inactive) | 7.66 µM (inactive) | 4.12 µM (inactive) |  | 2.88 µM (inactive) | 2.67 µM (inactive) | 3.38 µM (inactive) | 3.2 µM (inactive) | 7.28 µM (inactive) | 5.32 µM (inactive) |  | 3.73 µM (inactive) | 2.89 µM (inactive) | 1.96 µM (inactive) | 5.75 µM (inactive) | 1.67 µM (inactive) |
| O=C(CSc1nc2ccccc2s1)c1sc2sc3ccccc3[n+]2c1[O-] | > 100 µM (inactive) | > 100 µM (inactive) | > 100 µM (inactive) | > 100 µM (inactive) | > 100 µM (inactive) | > 100 µM (inactive) | > 100 µM (inactive) | > 100 µM (inactive) | > 100 µM (inactive) | > 100 µM (inactive) | > 100 µM (inactive) | > 100 µM (inactive) | > 100 µM (inactive) | > 100 µM (inactive) | > 100 µM (inactive) | > 100 µM (inactive) | > 100 µM (inactive) | > 100 µM (inactive) | > 100 µM (inactive) |  |
